Where two headings read alike, the source gives them in different places.
Assay: Single oral dose human plasma pharmacokinetics of D, DA and DOH after Cogni.Q
Assay type: in vivo
Conditions: for Tmax / AUC(0-t) / Cmax / half-life: human, plasma
Excerpt: Ten healthy male and 10 female subjects were recruited by public announcement in Amarillo, TX, from January 2013 to April 2013 (see Fig. 1 CONSORT diagram). The sample size for each gender was chosen without power calculation due to the lack of prior knowledge of PK parameter variance in humans. After receiving informed consent verbally and in writing, the health status of each candidate was confirmed by health questionnaire, plasma biochemistry (hepatic and renal functions), complete blood cell count (CBC), and a physical examination by a participating academic physician. Subjects with diabetes, or pregnant, perinatal and breastfeeding women were excluded. For the 48 hours preceding study visit until the final blood draw, all subjects were instructed to avoid taking any prescription or nonprescription drugs, vitamins, and herbal/dietary supplements. Each subject was compensated for participating in the study per TTUHSC IRB approved rate.
Eligible subjects arrived at our clinical facility at 0700 (7:00 am) on the test day after a fast beginning at 2200 (10:00 pm) the previous night. After a brief review of vital signs, the nurse placed an intravenous (IV) line with saline drip in one arm of each subject. A baseline pre-dose (hour 0) blood sample was drawn through the IV line; after that subjects swallowed four Cogni.Q vegicaps with 240 mL of water at hour 0 under direct supervision. Subjects stayed at the clinical facility in their room for the next 12 hours, returning at 24 and 48 hours. Blood was drawn at baseline (hour 0) and at 0.5, 1, 2, 3, 4, 6, 8, 12, 24 and 48 hours after dosing into Vacutainer Blood Collection Tube (Becton-Dickinson, Franklin Lakes, NJ. Product Number: 367874, Sodium heparin was used as anti-coagulant). Water was allowed as desired except for within the first hour after Cogni.Q consumption. All subjects received standardized meals at post-dose hours 4.5 and 9.5 but no food was allowed for at least the first 4 hours post-dose.
Plasma was prepared by centrifuging the heparinized blood at 1000 g for 15 minutes at room temperature. Urine samples (40mL) were collected within time spans of 0–4, 4–8, 8–12 and 12–24 hours (total volume of urine was recorded). All plasma and urine samples were put on dry ice immediately and then stored at -80°C freezer until analysis.
Plasma samples were extracted with a validated solid supported liquid extraction (SLE) method facilitated with a positive pressure manifold (Biotage, Charlotte, NC). Briefly, 100 μL of plasma sample was spiked with 5 μL of 10 ng/μL prednisolone (IS), diluted with 200 μL of LC-MS grade water, mixed and loaded onto ISOLUTE SLE+ 400 μL Array Well cartridges (Biotage, Charlotte, NC). A pulse of minimum positive pressure was applied to facilitate the samples absorption into the cartridges. After the samples were allowed to absorb for 5 min, the compounds were eluted with 2×500 μL tert-butyl methyl ether. The eluent was dried in a Speedvac and the resulting residue was reconstituted in 50 μL of methanol for UHPLC-MS/MS analysis.
Eight-point calibration curves were constructed for D, DA and DOH, at concentrations of 0.1, 0.5, 1, 5, 10, 20, 50 and 100 μg/L for D and DA, and at concentrations of 1, 5, 10, 50, 100, 200, 500 and 1000 μg/L for DOH, respectively. The linear range was 0.1–100 μg/L (0.3–300 nmol/L), 0.1–100 μg/L (0.3–300 nmol/L) and 1–1000 μg/L (4–4000 nmol/L) for D, DA and DOH, respectively. The inter- and intra-assay CV were lower than 6.5% and the accuracy was between 90–105%. Calibration curve was run for each batch of samples analyzed. The mean calibration curve correlation coefficient (r) for D, DA and DOH was 0.999, 0.999 and 0.998, respectively (data from 7–10 calibration curves). In addition, 70% of the plasma samples were extracted and analyzed twice, the data from two replicate analyses were nearly identical and combined for final data analyses and presentation. […]

Tmax (oral, 4 Cogni.Q vegicaps, subject S9 (158 lb), read-out: Tmax): 1 h | AUC(0-t) (oral, 4 Cogni.Q vegicaps, subject S10 (185 lb), read-out: AUC0-48h): 115 nmol·h/L | Cmax (oral, 4 Cogni.Q vegicaps, subject S10 (185 lb), read-out: Cmax): 7 nM | half-life (oral, 4 Cogni.Q vegicaps, subject S10 (185 lb), read-out: Terminal t1/2, h (converted)): 13.3 h | Tmax (oral, 4 Cogni.Q vegicaps, subject S10 (185 lb), read-out: Tmax): 2 h | AUC(0-t) (oral, 4 Cogni.Q vegicaps, subject S11 (178 lb), read-out: AUC0-48h): 168 nmol·h/L | Cmax (oral, 4 Cogni.Q vegicaps, subject S11 (178 lb), read-out: Cmax): 29.7 nM | half-life (oral, 4 Cogni.Q vegicaps, subject S11 (178 lb), read-out: Terminal t1/2, h (converted)): 14.2 h | Tmax (oral, 4 Cogni.Q vegicaps, subject S11 (178 lb), read-out: Tmax): 1 h | AUC(0-t) (oral, 4 Cogni.Q vegicaps, subject S12 (169 lb), read-out: AUC0-48h): 150 nmol·h/L | Cmax (oral, 4 Cogni.Q vegicaps, subject S12 (169 lb), read-out: Cmax): 16.8 nM | half-life (oral, 4 Cogni.Q vegicaps, subject S12 (169 lb), read-out: Terminal t1/2, h (converted)): 40.2 h | Tmax (oral, 4 Cogni.Q vegicaps, subject S12 (169 lb), read-out: Tmax): 2 h | AUC(0-t) (oral, 4 Cogni.Q vegicaps, subject S13 (192 lb), read-out: AUC0-48h): 106 nmol·h/L | Cmax (oral, 4 Cogni.Q vegicaps, subject S13 (192 lb), read-out: Cmax): 11.2 nM | half-life (oral, 4 Cogni.Q vegicaps, subject S13 (192 lb), read-out: Terminal t1/2, h (converted)): 12.7 h | Tmax (oral, 4 Cogni.Q vegicaps, subject S13 (192 lb), read-out: Tmax): 1 h | AUC(0-t) (oral, 4 Cogni.Q vegicaps, subject S14 (200 lb), read-out: AUC0-48h): 96.4 nmol·h/L | Cmax (oral, 4 Cogni.Q vegicaps, subject S14 (200 lb), read-out: Cmax): 24.4 nM | half-life (oral, 4 Cogni.Q vegicaps, subject S14 (200 lb), read-out: Terminal t1/2, h (converted)): 12.6 h | Tmax (oral, 4 Cogni.Q vegicaps, subject S14 (200 lb), read-out: Tmax): 1 h | AUC(0-t) (oral, 4 Cogni.Q vegicaps, subject S15 (177 lb), read-out: AUC0-48h): 512 nmol·h/L | Cmax (oral, 4 Cogni.Q vegicaps, subject S15 (177 lb), read-out: Cmax): 196 nM | half-life (oral, 4 Cogni.Q vegicaps, subject S15 (177 lb), read-out: Terminal t1/2, h (converted)): 18.7 h | Tmax (oral, 4 Cogni.Q vegicaps, subject S15 (177 lb), read-out: Tmax): 1 h | Tmax (oral, 4 Cogni.Q vegicaps, subject S16 (175 lb), read-out: Tmax): 3 h | AUC(0-t) (oral, 4 Cogni.Q vegicaps, subject S17 (147 lb), read-out: AUC0-48h): 593 nmol·h/L | Cmax (oral, 4 Cogni.Q vegicaps, subject S17 (147 lb), read-out: Cmax): 104 nM | half-life (oral, 4 Cogni.Q vegicaps, subject S17 (147 lb), read-out: Terminal t1/2, h (converted)): 24.2 h | Tmax (oral, 4 Cogni.Q vegicaps, subject S17 (147 lb), read-out: Tmax): 2 h | half-life (oral, 4 Cogni.Q vegicaps, subject S18 (180 lb), outlier, excluded from means, read-out: Terminal t1/2, h (converted)): 55.7 h | AUC(0-t) (oral, 4 Cogni.Q vegicaps, subject S18 (180 lb), read-out: AUC0-48h): 48.1 nmol·h/L | Cmax (oral, 4 Cogni.Q vegicaps, subject S18 (180 lb), read-out: Cmax): 3 nM | Tmax (oral, 4 Cogni.Q vegicaps, subject S18 (180 lb), read-out: Tmax): 4 h | AUC(0-t) (oral, 4 Cogni.Q vegicaps, subject S19 (130 lb), read-out: AUC0-48h): 87.7 nmol·h/L | Cmax (oral, 4 Cogni.Q vegicaps, subject S19 (130 lb), read-out: Cmax): 6.9 nM | half-life (oral, 4 Cogni.Q vegicaps, subject S19 (130 lb), read-out: Terminal t1/2, h (converted)): 16 h | Tmax (oral, 4 Cogni.Q vegicaps, subject S19 (130 lb), read-out: Tmax): 4 h | half-life (oral, subject S16 (175 lb), outlier, excluded from means, read-out: Terminal t1/2, h (converted)): 190 h | AUC(0-t) (oral, subject S16 (175 lb), read-out: AUC0-48h): 68.4 nmol·h/L | Cmax (oral, subject S16 (175 lb), read-out: Cmax): 4.3 nM | AUC(0-t) (oral, subject S20 (200 lb), read-out: AUC0-48h): 170 nmol·h/L | Cmax (oral, subject S20 (200 lb), read-out: Cmax): 17.2 nM | half-life (oral, subject S20 (200 lb), read-out: Terminal t1/2, h (converted)): 18.8 h | Tmax (oral, subject S20 (200 lb), read-out: Tmax): 2 h | conversion of D/DA to DOH (humans, from plasma AUC0–48h values): > 98% | AUC(0-t) (male, oral, 4 Cogni.Q vegicaps, Men n=10 (S1 Table), read-out: AUC0-48h, Mean): 327 nmol·h/L | Cmax (male, oral, 4 Cogni.Q vegicaps, Men n=10 (S1 Table), read-out: Cmax, nM, Mean): 52.2 nM | Tmax (male, oral, 4 Cogni.Q vegicaps, Men n=10 (S1 Table), read-out: Tmax, h, Mean): 2.1 h | half-life (male, oral, Men, outliers excluded (S1 Table), read-out: Terminal t1/2, h, Mean (converted)): 14.9 h | AUC(0-t) (male, po, Men N = 10, single oral dose Cogni.Q, read-out: AUC0–48h, h.nmol/L Mean (SD)): 327 nmol·h/L | Cmax (male, po, Men N = 10, single oral dose Cogni.Q, read-out: Cmax, nmol/L, Mean (SD)): 52.2 nM | Tmax (male, po, Men N = 10, single oral dose Cogni.Q, read-out: Tmax, h, Mean (SD)): 2.1 h | half-life (male, po, Men, outlier subjects excluded, single oral dose Cogni.Q, read-out: T1/2, h, terminal Mean (SD) (converted)): 14.9 h | difference in C max among subjects in the same gender (same gender): more than 20 fold
SMILES: C/C=C(/C)C(=O)O[C@H]1Cc2cc3ccc(=O)oc3cc2OC1(C)C [DA, decursinol angelate]
